Data as given in US20230272448A1, “AN IMPROVED SUBSTRATE COCKTAIL ASSAY FOR HIGH-THROUGHPUT SCREENING OF CYTOCHROME P450 INHIBITORS” (priority 2020, published 2023).

Legend:
CYP2B6 [1] = target: T1, CYP2B6 (Homo sapiens, UniProt P20813); settings: literature reported Km; metabolite hydroxyl-bupropion; cited from earlier work
T1 sequence (P20813 1-491): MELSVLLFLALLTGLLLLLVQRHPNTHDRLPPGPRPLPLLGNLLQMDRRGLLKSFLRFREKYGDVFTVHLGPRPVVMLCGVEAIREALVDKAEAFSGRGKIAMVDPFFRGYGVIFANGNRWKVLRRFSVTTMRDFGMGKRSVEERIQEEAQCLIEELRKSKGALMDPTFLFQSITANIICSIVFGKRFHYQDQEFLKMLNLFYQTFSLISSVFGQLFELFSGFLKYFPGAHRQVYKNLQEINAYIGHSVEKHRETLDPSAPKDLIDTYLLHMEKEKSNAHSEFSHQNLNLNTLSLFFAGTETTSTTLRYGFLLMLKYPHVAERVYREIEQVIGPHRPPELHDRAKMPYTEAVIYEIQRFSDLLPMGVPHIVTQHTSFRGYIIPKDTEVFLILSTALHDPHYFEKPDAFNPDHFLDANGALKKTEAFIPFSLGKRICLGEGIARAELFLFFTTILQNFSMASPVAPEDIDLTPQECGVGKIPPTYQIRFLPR

CYP2A6 = target: T2, CYP2A6 (Homo sapiens, UniProt P11509); settings: literature reported Km; metabolite hydroxyl-coumarine; cited from earlier work
T2 sequence (P11509 1-494): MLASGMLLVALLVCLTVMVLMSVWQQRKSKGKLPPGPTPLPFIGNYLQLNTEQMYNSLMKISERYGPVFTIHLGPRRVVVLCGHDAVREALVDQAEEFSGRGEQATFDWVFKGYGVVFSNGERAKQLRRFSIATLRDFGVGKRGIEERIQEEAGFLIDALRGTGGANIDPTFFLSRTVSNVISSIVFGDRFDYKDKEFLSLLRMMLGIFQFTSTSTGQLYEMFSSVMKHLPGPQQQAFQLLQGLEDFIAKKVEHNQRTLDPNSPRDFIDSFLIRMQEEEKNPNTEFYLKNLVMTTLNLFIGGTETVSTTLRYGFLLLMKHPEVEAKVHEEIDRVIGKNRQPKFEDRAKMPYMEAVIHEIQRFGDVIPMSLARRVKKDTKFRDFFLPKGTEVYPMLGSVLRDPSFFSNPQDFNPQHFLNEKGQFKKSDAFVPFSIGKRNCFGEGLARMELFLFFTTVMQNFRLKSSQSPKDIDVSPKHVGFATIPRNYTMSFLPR

CYP2C9 = CYP2C9 (Homo sapiens, UniProt P11712); settings: literature reported Km; metabolite hydroxyl-diclofenac; cited from earlier work
Chain of CYP2C9 (P11712 whole entry): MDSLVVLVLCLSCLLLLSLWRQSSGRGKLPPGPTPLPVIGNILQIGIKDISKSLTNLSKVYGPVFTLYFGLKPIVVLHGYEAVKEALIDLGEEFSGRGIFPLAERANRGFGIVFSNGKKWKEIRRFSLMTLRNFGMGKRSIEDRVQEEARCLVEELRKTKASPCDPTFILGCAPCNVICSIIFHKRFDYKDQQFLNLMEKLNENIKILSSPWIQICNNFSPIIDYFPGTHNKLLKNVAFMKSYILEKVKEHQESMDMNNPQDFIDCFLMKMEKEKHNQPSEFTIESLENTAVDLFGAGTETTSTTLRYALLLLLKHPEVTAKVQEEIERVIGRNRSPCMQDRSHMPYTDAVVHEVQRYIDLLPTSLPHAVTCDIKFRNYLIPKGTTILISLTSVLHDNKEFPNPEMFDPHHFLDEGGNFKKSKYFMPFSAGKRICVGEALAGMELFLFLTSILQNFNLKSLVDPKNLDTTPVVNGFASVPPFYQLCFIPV

CYP2C8 [2] = target: T3, CYP2C8 (Homo sapiens, UniProt P10632); assay: Single substrate (individual) CYP inhibition assay in human liver microsomes, LC-MS/MS; settings: read-out: Single Substrate IC50; substrate Paclitaxel 5 μM; HLM 0.2 mg/mL; 30 min; n = 4
T3 sequence (P10632 1-490): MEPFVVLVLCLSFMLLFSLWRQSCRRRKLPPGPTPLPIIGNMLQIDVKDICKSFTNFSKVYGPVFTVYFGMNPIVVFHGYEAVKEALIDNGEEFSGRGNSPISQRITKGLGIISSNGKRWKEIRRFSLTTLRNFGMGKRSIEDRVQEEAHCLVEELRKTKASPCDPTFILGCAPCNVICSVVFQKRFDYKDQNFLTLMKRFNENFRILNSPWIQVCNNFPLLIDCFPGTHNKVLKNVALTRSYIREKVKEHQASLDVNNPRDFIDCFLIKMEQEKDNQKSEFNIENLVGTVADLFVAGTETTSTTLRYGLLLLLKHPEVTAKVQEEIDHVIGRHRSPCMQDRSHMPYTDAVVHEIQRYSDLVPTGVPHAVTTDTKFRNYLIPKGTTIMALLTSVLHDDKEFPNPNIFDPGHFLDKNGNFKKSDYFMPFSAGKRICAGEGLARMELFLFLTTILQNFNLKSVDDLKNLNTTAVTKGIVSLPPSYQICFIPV

CYP2C8 [3] = target: T3, CYP2C8; settings: literature reported Km; metabolite 6-alpha hydroxyl-paclitaxel; cited from earlier work
CYP3A4 [4] = target: T4, CYP3A4 (Homo sapiens, UniProt P08684); settings: reported; cited from earlier work
T4 sequence (P08684 whole entry): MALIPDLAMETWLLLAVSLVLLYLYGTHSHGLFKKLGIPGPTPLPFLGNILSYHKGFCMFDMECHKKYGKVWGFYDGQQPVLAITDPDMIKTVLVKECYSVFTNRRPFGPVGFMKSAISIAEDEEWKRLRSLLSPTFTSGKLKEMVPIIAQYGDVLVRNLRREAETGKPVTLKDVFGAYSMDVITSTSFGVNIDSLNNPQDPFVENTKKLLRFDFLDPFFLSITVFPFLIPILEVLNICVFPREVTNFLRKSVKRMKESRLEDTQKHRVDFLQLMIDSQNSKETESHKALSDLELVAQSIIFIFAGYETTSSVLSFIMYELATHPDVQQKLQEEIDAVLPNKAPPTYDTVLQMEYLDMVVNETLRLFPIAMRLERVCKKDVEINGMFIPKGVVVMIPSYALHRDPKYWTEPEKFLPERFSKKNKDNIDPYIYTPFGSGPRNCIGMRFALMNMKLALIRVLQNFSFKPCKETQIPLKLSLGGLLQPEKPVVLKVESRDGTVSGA

CYP2B6 [5] = target: T1, CYP2B6; settings: reported; cited from earlier work
CYP3A4 [6] = target: T4, CYP3A4; settings: literature reported Km; metabolite hydroxyl-testosterone; cited from earlier work

Which Km (CYP2B6 [1]) does the source give for CC(NC(C)(C)C)C(=O)c1cccc(Cl)c1 (centres unmarked) [Bupropion] here?
The Km was 103 ± 7.65 µM.

Which Km (CYP2A6) does the source give for O=c1ccc2ccccc2o1 [Coumarin] here?
Its Km is 1.17 ± 0.118 µM.

Which Km (CYP2C9) does the source give for O=C(O)Cc1ccccc1Nc1c(Cl)cccc1Cl [Diclofenac] here?
The Km was 22 ± 11 µM.

With CC(C)(O)c1ccccc1CC[C@@H](SCC1(CC(=O)O)CC1)c1cccc(/C=C/c2ccc3ccc(Cl)cc3n2)c1 [Montelukast] as the compound, how does the IC50 (CYP2C8 [2]) read?
The IC50 was 0.521 µM.

Which Km (CYP2C8 [3]) does the source give for CC(=O)O[C@H]1C(=O)[C@@]2(C)[C@H]([C@H](OC(=O)c3ccccc3)[C@]3(O)C[C@H](OC(=O)[C@H](O)[C@@H](NC(=O)c4ccccc4)c4ccccc4)C(C)=C1C3(C)C)[C@]1(OC(C)=O)CO[C@@H]1C[C@@H]2O [Paclitaxel] here?
The Km was 11.5 ± 7.5 µM.

For CCOc1ccc(NC(C)=O)cc1 [Phenacetin], which “Inhibition of CYP3A4 by probe substrate” value (CYP3A4 [4]) is on record?
The value was “weakly inhibit”.

And the “Inhibition of CYP2B6 by probe substrate” value (CYP2B6 [5])?
Its value is “weakly inhibit”.

Which Km (CYP3A4 [6]) does the source give for C[C@]12CC[C@H]3[C@@H](CCC4=CC(=O)CC[C@@]43C)[C@@H]1CC[C@@H]2O [Testosterone] here?
The Km was 48.5 ± 3.75 µM.
